Measurements from ChEMBL document CHEMBL1671859, “bla(IMP-4) in different genetic contexts in Enterobacteriaceae isolates from Australia” (2008).
In brackets after ≈: the same amount, converted by molar mass.

Key:
Format in all cases: functional
Klebsiella pneumoniae [1] = assay: Antibacterial activity against Klebsiella pneumoniae isolate Kp211 harboring IncA/C plasmid and blaIMP-4-qacG2-aacA4-catB3 array by Etest method
Klebsiella pneumoniae [2] = assay: Antibacterial activity against Klebsiella pneumoniae isolate Kp7564 harboring IncL/M plasmid and blaIMP-4-qacG2-aacA4-catB3 array by Etest method
Escherichia coli [3] = assay: Antibacterial activity against Escherichia coli isolate Ec9381 harboring IncL/M plasmid and blaIMP-4-qacG2-aacA4-catB3 array by Etest method
Acinetobacter = assay: Antibacterial activity against Acinetobacter isolate A74510 harboring blaIMP-4-qacG2-aacA4-catB3 array by Etest method
Klebsiella pneumoniae [4] = assay: Antibacterial activity against Klebsiella pneumoniae Kp2730 transconjugant harboring IncL/M plasmid and blaIMP-4-qacG2-aacA4-catB3 and dfrA12-orfF-aadA2 arrays by Etest method
Serratia marcescens [5] = assay: Antibacterial activity against Serratia marcescens isolate Sm2723 harboring IncL/M plasmid and blaIMP-4-qacG2-aacA4-catB3 array by Etest method
Enterobacter cloacae [6] = assay: Antibacterial activity against Enterobacter cloacae isolate El3799 harboring IncL/M plasmid and blaIMP-4-qacG2-aacA4-catB3 array by Etest method
Serratia marcescens [7] = assay: Antibacterial activity against Serratia marcescens isolate Sm211 harboring IncA/C plasmid and blaIMP-4-qacG2-aacA4-catB3 array by Etest method
Klebsiella pneumoniae [8] = assay: Antibacterial activity against Klebsiella pneumoniae isolate Kp38009 harboring IncL/M plasmid and blaIMP-4-qacG2-aacA4-catB3 array by Etest method
Serratia marcescens [9] = assay: Antibacterial activity against Serratia marcescens Sm2723 transconjugant harboring IncL/M plasmid and blaIMP-4-qacG2-aacA4-catB3 array by Etest method
Serratia marcescens [10] = assay: Antibacterial activity against Serratia marcescens isolate Sm265 harboring IncA/C plasmid and blaIMP-4-qacG2-aacA4-catB3 array by Etest method
Escherichia coli [11] = assay: Antibacterial activity against Escherichia coli isolate Ec158 harboring IncA/C plasmid and blaIMP-4-qacG2-aacA4-catB3 array by Etest method
Morganella morganii [12] = assay: Antibacterial activity against Morganella morganii isolate Mm1229 harboring IncL/M plasmid and blaIMP-4-qacG2-aacA4-catB3 array by Etest method
Enterobacter cloacae [13] = assay: Antibacterial activity against Enterobacter cloacae El1573 transconjugant harboring IncL/M plasmid and blaIMP-4-qacG2-aacA4-catB3 array by Etest method
Morganella morganii [14] = assay: Antibacterial activity against Morganella morganii Mm1229 transconjugant harboring IncL/M plasmid and blaIMP-4-qacG2-aacA4-catB3 array by Etest method
Serratia marcescens [15] = assay: Antibacterial activity against Serratia marcescens isolate Sm203 harboring IncA/C plasmid and blaIMP-4-qacG2-aacA4-catB3 array by Etest method
Citrobacter koseri [16] = assay: Antibacterial activity against Citrobacter koseri Ck211 transconjugant harboring IncA/C plasmid and blaIMP-4-qacG2-aacA4-catB3 array by Etest method
Escherichia coli [17] = assay: Antibacterial activity against Escherichia coli Ec9381 transconjugant harboring IncL/M plasmid and blaIMP-4-qacG2-aacA4-catB3 array by Etest method
Enterobacter cloacae [18] = assay: Antibacterial activity against Enterobacter cloacae El3518 transconjugant harboring IncL/M plasmid and blaIMP-4-qacG2-aacA4-catB3 array by Etest method
Citrobacter amalonaticus [19] = assay: Antibacterial activity against Citrobacter amalonaticus isolate Ca38009 harboring IncL/M plasmid and blaIMP-4-qacG2-aacA4-catB3 array by Etest method
Klebsiella oxytoca = assay: Antibacterial activity against Klebsiella oxytoca Ko238 transconjugant harboring IncA/C plasmid and blaIMP-4-qacG2-aacA4-catB3 array by Etest method
Serratia marcescens [20] = assay: Antibacterial activity against Serratia marcescens isolate Sm201 harboring IncA/C plasmid and blaIMP-4-qacG2-aacA4-catB3 array by Etest method
Klebsiella pneumoniae [21] = assay: Antibacterial activity against Klebsiella pneumoniae isolate Kp204 harboring IncA/C plasmid and blaIMP-4-qacG2-aacA4-catB3 array by Etest method
Escherichia coli [22] = assay: Antibacterial activity against Escherichia coli Ec221 transconjugant harboring IncA/C plasmid and blaIMP-4-qacG2-aacA4-catB3 array by Etest method
Morganella morganii [23] = assay: Antibacterial activity against Morganella morganii isolate Mm1614 harboring IncL/M plasmid and blaIMP-4-qacG2-aacA4-catB3 array by Etest method
Klebsiella pneumoniae [24] = assay: Antibacterial activity against Klebsiella pneumoniae isolate Kp1945 harboring IncL/M plasmid and blaIMP-4-qacG2-aacA4-catB3 and dfrA12-orfF-aadA2 arrays by Etest method
Morganella morganii [25] = assay: Antibacterial activity against Morganella morganii Mm38009 transconjugant harboring IncL/M plasmid and blaIMP-4-qacG2-aacA4-catB3 array by Etest method
Citrobacter amalonaticus [26] = assay: Antibacterial activity against Citrobacter amalonaticus isolate Ca1614 harboring IncL/M plasmid and blaIMP-4-qacG2-aacA4-catB3 array by Etest method
Enterobacter cloacae [27] = assay: Antibacterial activity against Enterobacter cloacae isolate El3518 harboring IncL/M plasmid and blaIMP-4-qacG2-aacA4-catB3 array by Etest method
Klebsiella pneumoniae [28] = assay: Antibacterial activity against Klebsiella pneumoniae isolate Kp149 harboring IncA/C plasmid and blaIMP-4-qacG2-aacA4-catB3 array by Etest method
Acinetobacter baumannii = assay: Antibacterial activity against Acinetobacter baumannii isolate AbN450 harboring […]-qacG2-aacA4-catB3 array by Etest method
Enterobacter cloacae [29] = assay: Antibacterial activity against Enterobacter cloacae isolate El3280 harboring IncL/M plasmid and blaIMP-4-qacG2-aacA4-catB3 array by Etest method
Klebsiella pneumoniae [30] = assay: Antibacterial activity against Klebsiella pneumoniae Kp204 transconjugant harboring IncA/C plasmid and blaIMP-4-qacG2-aacA4-catB3 array by Etest method
Citrobacter koseri [31] = assay: Antibacterial activity against Citrobacter koseri isolate Ck211 harboring IncA/C plasmid and blaIMP-4-qacG2-aacA4-catB3 array by Etest method
Enterobacter cloacae [32] = assay: Antibacterial activity against Enterobacter cloacae isolate El1573 harboring IncL/M plasmid and blaIMP-4-qacG2-aacA4-catB3 array by Etest method
Klebsiella pneumoniae [33] = assay: Antibacterial activity against Klebsiella pneumoniae Kp149 transconjugant harboring IncA/C plasmid and blaIMP-4-qacG2-aacA4-catB3 array by Etest method
Citrobacter amalonaticus [34] = assay: Antibacterial activity against Citrobacter amalonaticus Ca38009 transconjugant harboring IncL/M plasmid and blaIMP-4-qacG2-aacA4-catB3 array by Etest method
Klebsiella pneumoniae [35] = assay: Antibacterial activity against Klebsiella pneumoniae isolate Kp2730 harboring IncL/M plasmid and blaIMP-4-qacG2-aacA4-catB3 and dfrA12-orfF-aadA2 arrays by Etest method
Klebsiella pneumoniae [36] = assay: Antibacterial activity against Klebsiella pneumoniae isolate Kp3799 harboring IncL/M plasmid and blaIMP-4-qacG2-aacA4-catB3 array by Etest method
Klebsiella pneumoniae [37] = assay: Antibacterial activity against Klebsiella pneumoniae Kp38009 transconjugant harboring IncL/M plasmid and blaIMP-4-qacG2-aacA4-catB3 array by Etest method
Klebsiella pneumoniae [38] = assay: Antibacterial activity against Klebsiella pneumoniae Kp3799 transconjugant harboring IncL/M plasmid and blaIMP-4-qacG2-aacA4-catB3 array by Etest method

CO/N=C(\C(=O)N[C@@H]1C(=O)N2C(C(=O)O)=C(COC(C)=O)CS[C@H]12)c1csc(N)n1 [CEFOTAXIME]
MIC (Klebsiella pneumoniae [1]): > 32 µg/mL
MIC (Klebsiella pneumoniae [2]): 32 µg/mL (≈ 70.3 µM)
MIC (Escherichia coli [3]): > 32 µg/mL
MIC (Acinetobacter): > 32 µg/mL
MIC (Klebsiella pneumoniae [4]): 32 µg/mL (≈ 70.3 µM)
MIC (Serratia marcescens [5]): > 32 µg/mL
MIC (Enterobacter cloacae [6]): > 32 µg/mL
MIC (Serratia marcescens [7]): > 32 µg/mL
MIC (Klebsiella pneumoniae [8]): > 32 µg/mL
MIC (Serratia marcescens [9]): 16 µg/mL (≈ 35.1 µM)
MIC (Serratia marcescens [10]): > 32 µg/mL
MIC (Escherichia coli [11]): > 32 µg/mL
MIC (Morganella morganii [12]): > 32 µg/mL
MIC (Enterobacter cloacae [13]): 16 µg/mL (≈ 35.1 µM)
MIC (Morganella morganii [14]): 32 µg/mL (≈ 70.3 µM)
MIC (Serratia marcescens [15]): > 32 µg/mL
MIC (Citrobacter koseri [16]): > 2 µg/mL
MIC (Escherichia coli [17]): 32 µg/mL (≈ 70.3 µM)
MIC (Enterobacter cloacae [18]): 32 µg/mL (≈ 70.3 µM)
MIC (Citrobacter amalonaticus [19]): > 32 µg/mL
MIC (Klebsiella oxytoca): 32 µg/mL (≈ 70.3 µM)
MIC (Serratia marcescens [20]): > 32 µg/mL
MIC (Klebsiella pneumoniae [21]): > 32 µg/mL
MIC (Escherichia coli [22]): 32 µg/mL (≈ 70.3 µM)
MIC (Morganella morganii [23]): 32 µg/mL (≈ 70.3 µM)
MIC (Klebsiella pneumoniae [24]): > 32 µg/mL
MIC (Morganella morganii [25]): 32 µg/mL (≈ 70.3 µM)
MIC (Citrobacter amalonaticus [26]): > 32 µg/mL
MIC (Enterobacter cloacae [27]): > 32 µg/mL
MIC (Klebsiella pneumoniae [28]): > 32 µg/mL
MIC (Acinetobacter baumannii): > 32 µg/mL
MIC (Enterobacter cloacae [29]): > 32 µg/mL
MIC (Klebsiella pneumoniae [30]): > 32 µg/mL
MIC (Citrobacter koseri [31]): > 32 µg/mL
MIC (Enterobacter cloacae [32]): > 32 µg/mL
MIC (Klebsiella pneumoniae [33]): > 32 µg/mL
MIC (Citrobacter amalonaticus [34]): 16 µg/mL (≈ 35.1 µM)
MIC (Klebsiella pneumoniae [35]): > 32 µg/mL
MIC (Klebsiella pneumoniae [36]): > 32 µg/mL
MIC (Klebsiella pneumoniae [37]): 32 µg/mL (≈ 70.3 µM)
MIC (Klebsiella pneumoniae [38]): 32 µg/mL (≈ 70.3 µM)

NC[C@H]1O[C@H](O[C@H]2[C@H](O)[C@@H](O[C@H]3O[C@H](CO)[C@@H](O)[C@H](N)[C@H]3O)[C@H](N)C[C@@H]2N)[C@H](N)C[C@@H]1O [TOBRAMYCIN]
MIC (Klebsiella pneumoniae [1]): 8 µg/mL (≈ 17.1 µM)
MIC (Klebsiella pneumoniae [2]): 8 µg/mL (≈ 17.1 µM)
MIC (Escherichia coli [3]): > 8 µg/mL
MIC (Acinetobacter): > 8 µg/mL
MIC (Klebsiella pneumoniae [4]): 8 µg/mL (≈ 17.1 µM)
MIC (Serratia marcescens [5]): > 8 µg/mL
MIC (Enterobacter cloacae [6]): > 8 µg/mL
MIC (Serratia marcescens [7]): > 8 µg/mL
MIC (Klebsiella pneumoniae [8]): 8 µg/mL (≈ 17.1 µM)
MIC (Serratia marcescens [9]): 8 µg/mL (≈ 17.1 µM)
MIC (Serratia marcescens [10]): > 8 µg/mL
MIC (Escherichia coli [11]): 8 µg/mL (≈ 17.1 µM)
MIC (Morganella morganii [12]): > 8 µg/mL
MIC (Enterobacter cloacae [13]): 8 µg/mL (≈ 17.1 µM)
MIC (Morganella morganii [14]): 8 µg/mL (≈ 17.1 µM)
MIC (Serratia marcescens [15]): > 8 µg/mL
MIC (Citrobacter koseri [16]): 8 µg/mL (≈ 17.1 µM)
MIC (Escherichia coli [17]): 8 µg/mL (≈ 17.1 µM)
MIC (Enterobacter cloacae [18]): > 8 µg/mL
MIC (Citrobacter amalonaticus [19]): > 8 µg/mL
MIC (Klebsiella oxytoca): 8 µg/mL (≈ 17.1 µM)
MIC (Serratia marcescens [20]): > 8 µg/mL
MIC (Klebsiella pneumoniae [21]): 8 µg/mL (≈ 17.1 µM)
MIC (Escherichia coli [22]): 8 µg/mL (≈ 17.1 µM)
MIC (Morganella morganii [23]): > 8 µg/mL
MIC (Klebsiella pneumoniae [24]): > 8 µg/mL
MIC (Morganella morganii [25]): 8 µg/mL (≈ 17.1 µM)
MIC (Citrobacter amalonaticus [26]): > 8 µg/mL
MIC (Enterobacter cloacae [27]): > 8 µg/mL
MIC (Klebsiella pneumoniae [28]): > 8 µg/mL
MIC (Acinetobacter baumannii): > 8 µg/mL
MIC (Enterobacter cloacae [29]): > 8 µg/mL
MIC (Klebsiella pneumoniae [30]): 8 µg/mL (≈ 17.1 µM)
MIC (Citrobacter koseri [31]): 8 µg/mL (≈ 17.1 µM)
MIC (Enterobacter cloacae [32]): > 8 µg/mL
MIC (Klebsiella pneumoniae [33]): 8 µg/mL (≈ 17.1 µM)
MIC (Citrobacter amalonaticus [34]): 8 µg/mL (≈ 17.1 µM)
MIC (Klebsiella pneumoniae [35]): > 8 µg/mL
MIC (Klebsiella pneumoniae [36]): > 8 µg/mL
MIC (Klebsiella pneumoniae [37]): 8 µg/mL (≈ 17.1 µM)
MIC (Klebsiella pneumoniae [38]): 8 µg/mL (≈ 17.1 µM)
